Assay results as given in ChEMBL document CHEMBL4017512 (J Med Chem, 2017).

Columns and labels:
L1210 = experiment: Antiproliferative activity against mouse L1210 cells after 72 hrs by phosphatase assay; format: functional, cell-based; conditions: L1210, 72 h
[1] = Cytotoxicity against human HCT116/VM46 cells assessed as reduction in cell viability after 72 hrs by phosphatase assay; format: cell-based; conditions: HCT-116/VM46, 72 h
HCT-116 = experiment: Antiproliferative activity against human HCT116 cells after 72 hrs by phosphatase assay; format: functional, cell-based; conditions: HCT-116, 72 h

Row | SMILES | IC50 (L1210) | IC50 (HCT-116) | IC50 [1]
1 | CC[C@]1(NC(=O)c2ccc3cc(N)ccc3c2)C[C@H]2CN(CCc3c([nH]c4ccccc34)[C@@](C(=O)OC)(c3cc4c(cc3OC)N(C)[C@H]3[C@@](O)(C(=O)OC)[C@H](OC(C)=O)[C@]5(CC)C=CCN6CC[C@]43[C@@H]65)C2)C1 | 0.7 nM | 0.8 nM | 7.4 nM
2 | CC[C@]1(NS(=O)(=O)c2ccc3ccccc3c2)C[C@H]2CN(CCc3c([nH]c4ccccc34)[C@@](C(=O)OC)(c3cc4c(cc3OC)N(C)[C@H]3[C@@](O)(C(=O)OC)[C@H](OC(C)=O)[C@]5(CC)C=CCN6CC[C@]43[C@@H]65)C2)C1 | 50 nM | 60 nM | 440 nM
3 | CC[C@]1(NS(=O)(=O)c2ccc(C)cc2)C[C@H]2CN(CCc3c([nH]c4ccccc34)[C@@](C(=O)OC)(c3cc4c(cc3OC)N(C)[C@H]3[C@@](O)(C(=O)OC)[C@H](OC(C)=O)[C@]5(CC)C=CCN6CC[C@]43[C@@H]65)C2)C1 | 40 nM | 30 nM | 330 nM
4 | CC[C@]1(NC(=O)c2ccc(S(=O)(=O)F)cc2)C[C@H]2CN(CCc3c([nH]c4ccccc34)[C@@](C(=O)OC)(c3cc4c(cc3OC)N(C)[C@H]3[C@@](O)(C(=O)OC)[C@H](OC(C)=O)[C@]5(CC)C=CCN6CC[C@]43[C@@H]65)C2)C1 | 20 nM | 30 nM | 310 nM
5 | CC[C@]1(NC(=O)c2cc(OC)c(OC)c(OC)c2)C[C@H]2CN(CCc3c([nH]c4ccccc34)[C@@](C(=O)OC)(c3cc4c(cc3OC)N(C)[C@H]3[C@@](O)(C(=O)OC)[C@H](OC(C)=O)[C@]5(CC)C=CCN6CC[C@]43[C@@H]65)C2)C1 | 0.09 nM | 0.1 nM | 2.4 nM
6 | CCOc1ccc(C(=O)N[C@@]2(CC)C[C@H]3CN(CCc4c([nH]c5ccccc45)[C@@](C(=O)OC)(c4cc5c(cc4OC)N(C)[C@H]4[C@@](O)(C(=O)OC)[C@H](OC(C)=O)[C@]6(CC)C=CCN7CC[C@]54[C@@H]76)C3)C2)cc1 | 0.6 nM | 0.6 nM | 2.8 nM
7 | CC[C@]1(NC(=O)c2ccc(C(C)(C)C)cc2)C[C@H]2CN(CCc3c([nH]c4ccccc34)[C@@](C(=O)OC)(c3cc4c(cc3OC)N(C)[C@H]3[C@@](O)(C(=O)OC)[C@H](OC(C)=O)[C@]5(CC)C=CCN6CC[C@]43[C@@H]65)C2)C1 | 0.6 nM | 1.9 nM | 55 nM
8 | CC[C@]1(NC(=O)c2ccc(NS(C)(=O)=O)cc2)C[C@H]2CN(CCc3c([nH]c4ccccc34)[C@@](C(=O)OC)(c3cc4c(cc3OC)N(C)[C@H]3[C@@](O)(C(=O)OC)[C@H](OC(C)=O)[C@]5(CC)C=CCN6CC[C@]43[C@@H]65)C2)C1 | 0.4 nM | 0.3 nM | 50 nM
9 | CC[C@]1(O)C[C@H]2CN(CCc3c([nH]c4ccc(F)cc34)[C@@](C(=O)OC)(c3cc4c(cc3OC)N(C)[C@H]3[C@@](O)(C(=O)OC)[C@H](OC(C)=O)[C@]5(CC)C=CCN6CC[C@]43[C@@H]65)C2)C1 | 0.6 nM | 0.7 nM | 30 nM

Now from value to molecule, other results behind:

Row | IC50 (L1210) | IC50 (HCT-116) | SMILES | IC50 [1]
10 | 0.7 nM | 0.6 nM | CC[C@]1(NC(=O)c2cnc3ccccc3c2)C[C@H]2CN(CCc3c([nH]c4ccccc34)[C@@](C(=O)OC)(c3cc4c(cc3OC)N(C)[C@H]3[C@@](O)(C(=O)OC)[C@H](OC(C)=O)[C@]5(CC)C=CCN6CC[C@]43[C@@H]65)C2)C1 | 5.7 nM
11 | 30 nM | 30 nM | CC[C@]1(NC(=O)c2cc(C)c(OCc3ccccc3)c(C)c2)C[C@H]2CN(CCc3c([nH]c4ccccc34)[C@@](C(=O)OC)(c3cc4c(cc3OC)N(C)[C@H]3[C@@](O)(C(=O)OC)[C@H](OC(C)=O)[C@]5(CC)C=CCN6CC[C@]43[C@@H]65)C2)C1 | 80 nM
12 | 5.7 nM | 5.3 nM | CC[C@]1(NC(=O)c2cccc(F)c2)C[C@H]2CN(CCc3c([nH]c4ccccc34)[C@@](C(=O)OC)(c3cc4c(cc3OC)N(C)[C@H]3[C@@](O)(C(=O)OC)[C@H](OC(C)=O)[C@]5(CC)C=CCN6CC[C@]43[C@@H]65)C2)C1 | 25 nM
13 | 4.9 nM | 6.1 nM | CCSc1ccc(C(=O)N[C@@]2(CC)C[C@H]3CN(CCc4c([nH]c5ccccc45)[C@@](C(=O)OC)(c4cc5c(cc4OC)N(C)[C@H]4[C@@](O)(C(=O)OC)[C@H](OC(C)=O)[C@]6(CC)C=CCN7CC[C@]54[C@@H]76)C3)C2)cc1 | 35 nM
14 | 0.6 nM | 0.8 nM | CC[C@]1(NC(=O)c2cccc(OC)c2)C[C@H]2CN(CCc3c([nH]c4ccccc34)[C@@](C(=O)OC)(c3cc4c(cc3OC)N(C)[C@H]3[C@@](O)(C(=O)OC)[C@H](OC(C)=O)[C@]5(CC)C=CCN6CC[C@]43[C@@H]65)C2)C1 | 8.7 nM
15 | 55 nM | 50 nM | CC[C@]1(NC(=O)c2ccccc2C)C[C@H]2CN(CCc3c([nH]c4ccccc34)[C@@](C(=O)OC)(c3cc4c(cc3OC)N(C)[C@H]3[C@@](O)(C(=O)OC)[C@H](OC(C)=O)[C@]5(CC)C=CCN6CC[C@]43[C@@H]65)C2)C1 | 540 nM
16 | 40 nM | 30 nM | CC[C@]1(NC(=O)c2ccc(C3CCCCC3)cc2)C[C@H]2CN(CCc3c([nH]c4ccccc34)[C@@](C(=O)OC)(c3cc4c(cc3OC)N(C)[C@H]3[C@@](O)(C(=O)OC)[C@H](OC(C)=O)[C@]5(CC)C=CCN6CC[C@]43[C@@H]65)C2)C1 | 60 nM
17 | 50 nM | 45 nM | CC[C@]1(NC(=O)C2CCN(C(=O)OC(C)(C)C)CC2)C[C@H]2CN(CCc3c([nH]c4ccccc34)[C@@](C(=O)OC)(c3cc4c(cc3OC)N(C)[C@H]3[C@@](O)(C(=O)OC)[C@H](OC(C)=O)[C@]5(CC)C=CCN6CC[C@]43[C@@H]65)C2)C1 | 500 nM
18 | 4.2 nM | 6.4 nM | CCc1cc(CC)cc(C(=O)N[C@@]2(CC)C[C@H]3CN(CCc4c([nH]c5ccccc45)[C@@](C(=O)OC)(c4cc5c(cc4OC)N(C)[C@H]4[C@@](O)(C(=O)OC)[C@H](OC(C)=O)[C@]6(CC)C=CCN7CC[C@]54[C@@H]76)C3)C2)c1 | 66 nM
19 | 0.6 nM | 0.7 nM | CC[C@]1(NC(=O)c2ccc3scnc3c2)C[C@H]2CN(CCc3c([nH]c4ccccc34)[C@@](C(=O)OC)(c3cc4c(cc3OC)N(C)[C@H]3[C@@](O)(C(=O)OC)[C@H](OC(C)=O)[C@]5(CC)C=CCN6CC[C@]43[C@@H]65)C2)C1 | 25 nM
20 | 6.2 nM | 6.4 nM | CC[C@]1(NC(=O)c2cccc(C(F)(F)F)c2)C[C@H]2CN(CCc3c([nH]c4ccccc34)[C@@](C(=O)OC)(c3cc4c(cc3OC)N(C)[C@H]3[C@@](O)(C(=O)OC)[C@H](OC(C)=O)[C@]5(CC)C=CCN6CC[C@]43[C@@H]65)C2)C1 | 40 nM
21 | 1.3 nM | 1.3 nM | CC[C@]1(NC(=O)/C=C/c2ccco2)C[C@H]2CN(CCc3c([nH]c4ccccc34)[C@@](C(=O)OC)(c3cc4c(cc3OC)N(C)[C@H]3[C@@](O)(C(=O)OC)[C@H](OC(C)=O)[C@]5(CC)C=CCN6CC[C@]43[C@@H]65)C2)C1 | 30 nM
